For 26 compounds, IC50 and EC50 results are on record in EP1076558B1, “2-PHENYL-1-[-(2-AMINOETHOXY)-BENZYL -INDOLE IN COMBINATION WITH ESTROGENS” (Wyeth, priority 1998, dated 1999).

The structures appear in SMILES notation. Structures can show the parent of a compound that is named as a salt.

The target in the first assay is T1, estrogen receptor (Homo sapiens, UniProt P03372).
T1 construct: expressed in transfected cells; host or cells: CHO cells (ribosome-free cytosol)
T1 sequence (P03372 1-595): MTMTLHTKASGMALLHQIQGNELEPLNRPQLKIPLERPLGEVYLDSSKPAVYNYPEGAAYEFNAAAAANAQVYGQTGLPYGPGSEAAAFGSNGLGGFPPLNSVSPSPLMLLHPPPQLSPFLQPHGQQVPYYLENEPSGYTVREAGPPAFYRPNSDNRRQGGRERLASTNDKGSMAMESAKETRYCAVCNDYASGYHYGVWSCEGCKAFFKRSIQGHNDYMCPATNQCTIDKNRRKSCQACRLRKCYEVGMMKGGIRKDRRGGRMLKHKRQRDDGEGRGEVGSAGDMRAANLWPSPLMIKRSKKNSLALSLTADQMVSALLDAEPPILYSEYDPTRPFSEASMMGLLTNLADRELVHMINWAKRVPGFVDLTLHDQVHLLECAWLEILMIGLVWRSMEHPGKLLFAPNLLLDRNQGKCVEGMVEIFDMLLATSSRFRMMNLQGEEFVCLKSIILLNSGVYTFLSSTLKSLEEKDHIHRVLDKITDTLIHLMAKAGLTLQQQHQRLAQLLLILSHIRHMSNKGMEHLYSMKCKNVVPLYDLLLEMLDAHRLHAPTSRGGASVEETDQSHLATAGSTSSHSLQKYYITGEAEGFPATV
The assay is described as follows: In vitro estrogen receptor binding assay.
Details: not given
As to the method: CHO cells overexpressing the estrogen receptor were grown in 150 mm^2 dishes in DMEM + 10% dextran coated charcoal, stripped fetal bovine serum. The plates were washed twice with PBS and once with 10mM Tris-HCl, pH 7.4, 1mM EDTA. Cells were harvested by scraping the surface and then the cell suspension was placed on ice. Cells were disrupted with a hand-held motorized tissue grinder using two, 10-second bursts. […] The cytosol was then frozen and stored at -80°C. Protein concentration of the cytosol was estimated using the BCA assay with reference standard protein.
100uG/100uL of the receptor preparation was aliquoted per well. […] The plate was incubated at room temperature for 2.5 h. […] 200 uL of the supernatant solution was then removed for scintillation counting. Samples were counted to 2% or 10 minutes, whichever occurs first. […] Also, wells containing radioactivity but no cytosol were processed with charcoal to estimate unremovable DPM of [^3H]
Counts per minute (CPM) of radioactivity were automatically converted to disintegrated per minute (DPM) by the Beckman LS 7500 Scintillation Counter using a set of quenched standards to generate a H No. for each sample.
For the generation of IC50 curves, % binding is plotted vs compound. […] For a description of these methods, see Hulme, E.C., ed. […] Receptor-Ligand Interactions: A Practical Approach. IRL Press, New York.(see especially chapter 8).
With `Cc1c(-c2ccc(O)cc2)n(Cc2ccc(OCCN(C(C)C)C(C)C)cc2)c2ccc(O)cc12` [Example No. 104, 1-[4-(2-Diisopropylamino-ethoxy)-benzyl]-2-(4-hydroxy-phenyl)-3-methyl-1H-indol-5-ol], the IC50 (usually the concentration that inhibits the measured activity by half) is 100 nM.

The same assay, now with this note: competition with [3H]17β-estradiol; cytosol of CHO cells overexpressing the estrogen receptor; read-out: Receptor Binding IC50's.
Consider `CCCCN(C)CCOc1ccc(Cn2c(-c3ccc(O)cc3)c(C)c3cc(O)ccc32)cc1` [Example No. 105], for which the IC50 was 28 nM.
The same measure, in the same setting: the figure for `Cc1c(-c2ccc(O)cc2)n(Cc2ccc(OCC[N+](C)(C)C)cc2)c2ccc(O)cc12` [Example No. 106, 2-(4-Hydroxy-phenyl)-3-methyl-1-[4-(2-dimethyl-1-yl-ethoxy)-benzyl]-1H-indol-5-ol methiodide] is 100 nM.

Still in this assay, the particulars now being: read-out: Receptor Binding IC50's.
In the case of `Cc1c(-c2ccc(O)cc2)n(Cc2ccc(OCCN3CCCCC3)cc2)c2ccccc12` [Example No. 86, 4-{3-Methyl-1-[4-(2-piperidin-1-yl-ethoxy)-benzyl]-1H-indol-2-yl}-phenol hydrochloride], the IC50 was 120 nM.
On the same count and under the same terms, the figure for `Cc1c(-c2ccc3c(c2)OCO3)n(Cc2ccc(OCCN3CCCCC3)cc2)c2ccc(O)cc12` [Example No. 119, 2-Benzo[1,3]dioxol-5-yl-3-methyl-1-[4-(2-piperidin-1-yl-ethoxy)-benzyl]-1H-indol-5-ol] is 70 nM; for `CCOc1ccc(-c2c(C)c3cc(O)ccc3n2Cc2ccc(OCCN3CCCCCC3)cc2)cc1` [Example No. 93, 1-[4-(2-Azepan-1-yl-ethoxy)-benzyl]-2-(4-ethoxy-phenyl)-3-methyl-1H-indol-5-ol] it is 90 nM.
As for `CCOc1ccc(-c2c(C)c3cc(O)ccc3n2Cc2ccc(OCCN3CCCCC3)cc2)cc1` [Example No. 92, 2-(4-Ethoxv-phenyl)-3-methyl-1-[4-(2-piperidin-1-yl-ethoxy)-benzyl]-1H-indol-5-ol], the IC50 came to 62 nM.
With `COc1ccc(-c2c(C)c3cc(OC)ccc3n2Cc2ccc(OCCN3CCCCC3)cc2)cc1` [Example No. 90, 5-Methoxy-2-(4-methoxy-phenyl)-3-methyl-1-{4-(2-piperidin-1-yl-ethoxy)-benzyl]-1H-indole], the IC50 is 600 nM.
Same read-out and setting: the figure for `Cc1c(-c2ccc(O)cc2)n(Cc2ccc(OCCN3C[C@@H]4CC[C@H]3C4)cc2)c2ccc(O)cc12` [Example No. 114, (1S,4R)-1-{4-[2-(2-Aza-bicyclo [2.2.1]hept-2-yl)-ethoxy]-benzyl}-2-(4-hydroxy-phenyl)-3-methyl-1H-indol-5-ol] is 1 nM; for `Cc1c(-c2ccc(O)cc2)n(Cc2ccc(OCCN3CCCCC3)cc2)c2ccc(F)cc12` [Example No. 94, 4-{5-Fluoro-3-methvl-1-[4-(2-piperidin-1-yl-ethoxy)-benzyl]-1H-indol-2-yl}-phenol] it is 200 nM.
For `Cc1c(-c2ccc(F)cc2)n(Cc2ccc(OCCN3CCCCCC3)cc2)c2ccc(O)cc12` [Example No. 117, 1-[4-(2-Azepan-1-yl-ethoxy)-benzyl]-2-(4-fluoro-phenyl)-3-methyl-1H-indol-5-ol], the IC50 stood at 100 nM.
Still for that read-out and setting: the figure for `CCCCN(CCCC)CCOc1ccc(Cn2c(-c3ccc(O)cc3)c(C)c3cc(O)ccc32)cc1` [Example No. 103, 1-[4-(2-Dibutylamino-ethoxy)-benzyl]-2-(4-hydroxy-phenyl)-3-methyl-1H-indol-5-ol] is 200 nM; for `Cc1c(-c2ccc(O)cc2)n(Cc2ccc(OCCN3CC4(C)CC3CC(C)(C)C4)cc2)c2ccc(O)cc12` (centres unmarked) [Example No. 115, 2-(4-Hydroxy-phenyl)-3-methyl-1-{4-[2-(1,3,3-trimethyl-6-aza-bicyclo[3.2.1]oct-6-yl)-ethoxy]-benzyl}-1H-indol-5-ol] it is 150 nM; for `COc1ccc2c(c1)c(C)c(-c1ccc(O)cc1)n2Cc1ccc(OCCN2CCCCC2)cc1` [Example No. 88, 4-{5-Methoxy-3-methyl-1-{4-[2-(piperidin-1-yl)-ethoxy]-benzyl}-1H-indol-2-yl}-phenol] it is 350 nM.
With `COc1ccc(-c2c(C)c3cc(O)ccc3n2Cc2ccc(OCCN3CCCCC3)cc2)cc1` [Example No. 89, 2-(4-methoxy-phenyl)-3-methyl-1-{4-[2-(piperidin-1-yl)-ethoxy]-benzyl}-1H-indol-5-ol], the IC50 was determined as 300 nM.
Same read-out and setting: the figure for `Cc1c(-c2ccc(F)cc2)n(Cc2ccc(OCCN3CCCCC3)cc2)c2ccc(O)cc12` [Example No. 116, 2-(4-Fluoro-phenyl)-3-methyl-1-[4-(2-piperidine-1-yl-ethoxy)-benzyl]-1H-indol-5-ol] is 40 nM.
The same measure, in the same setting: the figure for `CCCN(CCC)CCOc1ccc(Cn2c(-c3ccc(O)cc3)c(C)c3cc(O)ccc32)cc1` [Example No. 102, 1-[4-(2-Dipropylamino-ethoxy)-benzyl]-2-(4-hydroxy-phenyl)-3-methyl-1H-indol-5-ol] is 80 nM; for `Cc1c(-c2ccccc2)n(Cc2ccc(OCCN3CCCCC3)cc2)c2ccccc12` [Example No. 85, 4-{3-Methyl-1-[4-(2-piperidin-1-yl-ethoxy)-benzyl]-1H-indole}] it is 450 nM; for `Cc1c(-c2ccccc2)n(Cc2ccc(OCCN3CCCCC3)cc2)c2ccc(O)cc12` [Example No. 87, 3-Methyl-2-phenyl-1-[4-(2-piperidine-1-yl-ethoxy)-benzyl]-1H-indol-5-ol] it is 30 nM.
Same read-out and setting: the figure for `Cc1c(-c2ccc(O)cc2)n(Cc2ccc(OCCN3CCCCC3C)cc2)c2ccc(O)cc12` (centres unmarked) [Example No. 108, 2-(4-Hydroxy-phenyl)-3-methyl-1-{4-[2-(2-methyl-piperidin-1-yl)-ethoxy]-benzyl}-1H-indol-5-ol] is 20 nM; for `Cc1c(-c2ccc(O)cc2)n(Cc2ccc(OCCN3CCCC(C)(C)C3)cc2)c2ccc(O)cc12` [Example No. 111, 1-{4-[2-(3,3-Dimethyl-piperidin-1-yl)-ethoxy]-benzyl}-2-(4-hydroxy-phenyl)-3-methyl-1H-indol-5-ol] it is 150 nM.
Take `Cc1c(-c2ccc(O)cc2)n(Cc2ccc(OCCN3CCC(C)CC3)cc2)c2ccc(O)cc12` [Example No. 110, 2-(4-Hydroxy-phenyl)-3-methyl-1-{4-[2-(4-methyl-piperidin-1-yl)-ethoxy]-benzyl}-1H-indol-5-ol]: the IC50 is 37 nM.
On the same count and under the same terms, the figure for `Cc1c(-c2ccc(O)cc2)n(Cc2ccc(OCCN3CCC(O)CC3)cc2)c2ccc(O)cc12` [Example No. 113, 2-(4-Hydroxy-phenyl)-1-{4-[2-(4-hydroxy-piperidin-1-yl)-ethoxy]-benzyl}-3-methyl-1H-indol-5-ol] is 47 nM.

The next assay deals with Ishikawa cells. The assay is described as follows: Ishikawa Cell Alkaline Phosphatase Assay. It is filed as cell-based, human. As to conditions: Homo sapiens, Ishikawa; estrogenic activity by the alkaline phosphatase method; reference standards; read-out: ED50 values (95% C.I.). As to the method: Cells were treated for 48 h prior to assay. […] Sample population for at each dose was n=8. […] Plates are placed at -80°C for a minimum of 15 minutes. Plates are thawed at 37°C followed by the addition of 150μL of 0.1 M Tris-HCl, pH 9.8, containing 4 mM para-nitrophenylphosphate (pNPP) to each well (final concentration. 3 mM pNPP). Absorbance and slope calculations were made using the […] Application program (Bio-Tek Instruments, Inc., Winooski, VT). […] Various compounds were assayed for estrogenic activity by the alkaline phosphatase method and corresponding ED50 values (95% C.I.) were calculated. The four listed in the following were used as as reference standards: A description of these methods is described by Holinka, […]., Kuramoto, H. and Gurpide, E. (1986) Effects of steroid hormones and antisteroids on alkaline phosphatase activity in human endometrial cancer cells (Ishikawa Line). Cancer Research, 46:2771-2774, and by […]. and […] simple and sensitive microtiter plate estrogen bioassay based on stimulation alkaline phosphatase in Ishikawa cells; […] Endocrinology, 6:2757-2762.
`C[C@]12CC[C@@H]3c4ccc(O)cc4CC[C@H]3[C@@H]1CCC2=O` [estrone]: the EC50 was found to be 0.36 nM.
The same measure, in the same setting: the figure for `C[C@]12CC[C@@H]3c4ccc(O)cc4CC[C@H]3[C@@H]1C[C@@H](O)[C@@H]2O` [estriol] is 0.13 nM.

Staying with this assay, now noted: estrogenic activity by the alkaline phosphatase method; reference standards; read-out: ED50 values (95% C.I.).
As for `C[C@]12CC[C@@H]3c4ccc(O)cc4CC[C@H]3[C@@H]1CC[C@H]2O` [17α-estradiol], the EC50 amounted to 1.42 nM.
